pKd, pKi: −log10 of the molar value. Read-outs that look alike come from different tables or passages of the source.

Test [1] addresses T1, ER-β (Gen Bank Accession #X99101) (Homo sapiens, UniProt Q92731).
T1 construct: made in house; host or cells: in vitro transcription/translation, TNT T7 Quick-Coupled reticulocyte lysate (Promega Cat.#L1170)
The experiment in a line: Estrogen receptor binding, competition with [125I]-estradiol, ER-β. On the procedure:
(§1) The ability of a compound to bind to ER was measured by its ability to compete for binding with the radio-labeled estrogen.
(§2) Receptor protein was prepared by in vitro transcription and translation of these plasmids using the TNT T7 Quick-Coupled reticulocyte lysate system (Promega Cat.#L1170). […] Programmed lysate was then aliquotted and stored frozen at −80° C.
(§3) Compounds were prepared as 1 mM stocks in DMSO, then diluted in the binding-assay buffer (in mM: 20 HEPES, 150 NaCl, 1 EDTA, 6 monothioglycerol and 10 Na2MoO4; 10% wt/vol glycerol, and pH =7.9) to a series of three-fold concentrated, 20 μL aliquots in a 96-well plate. Receptor aliquots were thawed on ice, and appropriately diluted (see below) in binding assay buffer. Diluted receptor (30 μL/each) was added to each well. […] Plates containing the final assay mixture were mixed on a shaker for 2 min and incubated overnight (˜16 h) at 4° C.
(§4) Receptor-bound and unbound radioligand was separated by filtration over sephadex columns. Columns (45 μL bed volume) were prepared by adding dry column media (Pharmacia Cat#G-25) to 96-well column templates (Millipore MultiScreen Plates Cat#MAHVN4510). Columns were then saturated with 300 μL of binding-assay buffer and stored at 4° C. Prior to use, stored columns were spun for 10 minutes at 2000 RPM, then washed twice with 200 μL of fresh binding buffer. The binding-assay mixtures (50 μL/each) were then applied to the columns, and an additional elution volume of 35 μL was immediately applied to the column. Receptor-bound radioligand was then cluted from the column by centrifugation for 10 minutes at 2000 RPM. A scintillation cocktail (145 μL) was added to the eluted radioligand/receptor complex, and radio-label was measured by liquid scintillation counting.

Test [2] concerns the target T2, ER-α (Gen Bank Accession #M12674) (Homo sapiens, UniProt P03372).
T2 construct: made in house; host or cells: in vitro transcription/translation, TNT T7 Quick-Coupled reticulocyte lysate (Promega Cat.#L1170)
T2 sequence (P03372 1-595): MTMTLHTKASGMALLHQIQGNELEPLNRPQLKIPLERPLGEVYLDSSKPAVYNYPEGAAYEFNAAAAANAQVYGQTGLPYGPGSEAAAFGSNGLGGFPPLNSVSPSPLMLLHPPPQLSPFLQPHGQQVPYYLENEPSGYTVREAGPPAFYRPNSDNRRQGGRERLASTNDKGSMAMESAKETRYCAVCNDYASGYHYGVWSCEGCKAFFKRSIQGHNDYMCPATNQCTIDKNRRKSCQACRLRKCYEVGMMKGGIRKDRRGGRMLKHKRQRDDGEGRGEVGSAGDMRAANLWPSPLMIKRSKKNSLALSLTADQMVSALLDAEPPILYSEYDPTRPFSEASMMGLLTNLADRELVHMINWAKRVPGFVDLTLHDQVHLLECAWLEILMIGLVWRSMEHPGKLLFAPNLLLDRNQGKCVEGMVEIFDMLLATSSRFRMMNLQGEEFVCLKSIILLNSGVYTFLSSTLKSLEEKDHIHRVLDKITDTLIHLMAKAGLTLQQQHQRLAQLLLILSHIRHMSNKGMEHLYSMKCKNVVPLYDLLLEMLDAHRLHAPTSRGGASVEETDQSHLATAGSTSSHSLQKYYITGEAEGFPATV
The experiment in a line: Estrogen receptor binding, competition with [125I]-estradiol, ER-α. On the procedure:
as §1, §2, §3, §4

The target of a further test is ER. The experiment in a line: Scatchard analysis of ligand binding affinity on receptor preparation. To be noted: Scatchard analysis at receptor dilutions giving reported Kis and signal:noise ~10; subtype not specified; read-out: KD for [125I]-estradiol. On the procedure:
The volume of receptor-programmed reticulocyte lysate to be added to the binding assay was determined independently from two measurements made on each batch of receptor prepared. First, Kis were determined for standard compounds using a series of dilutions of the receptor preparation. Scatchard analysis of ligand binding affinity was performed at the receptor dilutions that produced reported Kis for these compounds and an acceptable signal:noise ratio (˜10).

The mark [3] stands for this setting: competition with 150 pM [125I]-estradiol, receptor-programmed reticulocyte lysate, overnight at 4° C., Cheng-Prushoff from IC50, read-out: ER-β Ki.
Where [4] appears, read: competition with 150 pM [125I]-estradiol, receptor-programmed reticulocyte lysate, overnight at 4° C., Cheng-Prushoff from IC50, read-out: ER-α Ki.

T1 sequence (Q92731 54-530 limits assumed): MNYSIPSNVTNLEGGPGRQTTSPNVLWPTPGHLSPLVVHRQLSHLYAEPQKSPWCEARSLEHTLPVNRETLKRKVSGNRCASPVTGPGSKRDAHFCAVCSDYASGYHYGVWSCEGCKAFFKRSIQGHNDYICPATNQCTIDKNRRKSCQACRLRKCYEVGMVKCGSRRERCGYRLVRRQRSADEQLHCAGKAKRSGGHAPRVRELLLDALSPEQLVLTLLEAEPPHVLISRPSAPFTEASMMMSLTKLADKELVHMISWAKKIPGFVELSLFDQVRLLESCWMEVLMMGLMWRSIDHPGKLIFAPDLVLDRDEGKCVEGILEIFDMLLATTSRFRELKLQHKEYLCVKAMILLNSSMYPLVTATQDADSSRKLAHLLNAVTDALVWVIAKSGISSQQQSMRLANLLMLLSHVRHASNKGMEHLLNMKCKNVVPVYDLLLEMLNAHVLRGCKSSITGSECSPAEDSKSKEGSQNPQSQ

As for `O=c1cc(-c2ccc(O)cc2)oc2ccc(O)cc12` [compound 36], the pKi in test [1] (setting [3]) is 9.48; in test [2] (setting [4]), 7.06.
In the same order, the values of `O=c1c(-c2ccc(Cl)cc2)coc2cc(O)cc(O)c12` [compound 21] are 7.38 and less than 5.52.
On to `Nc1ccc(-c2coc3cc(O)cc(O)c3c2=O)cc1` [compound 13], for which the pKi in test [1] (setting [3]) is 8.22; in test [2] (setting [4]), less than 5.52.
As to `O=c1c(-c2ccc(F)cc2)coc2cc(O)cc(O)c12` [compound 11], the pKi in test [1] (setting [3]) was 7.00; in test [2] (setting [4]), less than 5.52.
Take `CC12CCC3c4ccc(O)cc4CCC3C1CC([125I])C2O` (stereo not drawn) [[^125I]-estradiol, [^125I]-16α-iodo-3,17β-estradiol]: on ER, the pKd is 9.00 to 10.00.
Consider `O=c1c(-c2ccccc2)c(-c2ccccc2)oc2cc(O)cc(O)c12` [compound 34], for which the figures for the pKi in test [1] (setting [3]) and in test [2] (setting [4]) were 8.02 and 7.02, respectively.
As to `O=c1oc2ccc(O)cc2cc1-c1ccc(O)cc1` [compound 41], the pKi in test [1] (setting [3]) was 8.34.
Turning to `O=C1c2c(O)cc(O)cc2OCC1c1ccc(O)cc1` (stereo not drawn) [compound 26], the pKi in test [1] (setting [3]) was 8.43; in test [2] (setting [4]) it was 6.00.
In the same order, the values of `Cc1c(-c2ccc(O)cc2)c(=O)oc2cc(O)ccc12` [Compound No. 28, 3-(4-hydroxyphenyl)-7-hydroxy-4-methylcoumarin] are 7.92 and 6.49.
As to `O=c1c(-c2cccc(O)c2)coc2cc(O)cc(O)c12` [compound 15], the figures for the pKi in test [1] (setting [3]) and in test [2] (setting [4]) were 7.82 and 6.05, respectively.
In the same order, the values of `O=c1c(-c2ccccc2)c(-c2ccccc2)oc2cc(O)ccc12` [compound 35] are 7.72 and 7.30.
With `COc1c(O)cc(O)c2c(=O)c(-c3ccc(O)cc3)coc12` [compound 32], the pKi in test [1] (setting [3]) is 7.48; in test [2] (setting [4]), less than 5.52.
In the same order, the values of `Cc1cc(-c2coc3cc(O)cc(O)c3c2=O)cc(C)c1O` [compound 10] are 7.60 and less than 5.52.
In the same order, the values of `CCCc1cc(-c2coc3cc(O)cc(O)c3c2=O)ccc1O` [compound 8] are 9.12 and less than 5.52.
Consider `O=C1c2c(O)cc(O)cc2CCC1c1ccc(O)cc1` (stereo not drawn) [compound 27], for which, in test [1] (setting [3]), the pKi is 8.24.
`O=c1c(-c2ccccc2O)coc2cc(O)cc(O)c12` [compound 16]: the pKi in test [1] (setting [3]) is 6.96; in test [2] (setting [4]) it was less than 5.52.
`O=c1c(-c2ccccc2F)coc2cc(O)cc(O)c12` [compound 33]: the results for the pKi in test [1] (setting [3]) and in test [2] (setting [4]) were 7.30 and less than 5.52, respectively.
`Cc1cc(O)ccc1-c1coc2cc(O)cc(O)c2c1=O` [compound 3]: the pKi in test [1] (setting [3]) was 8.92; in test [2] (setting [4]), 7.21.
For the compound `O=c1c(-c2cccs2)coc2cc(O)cc(O)c12` [compound 17], the pKi in test [1] (setting [3]) is 8.48; in test [2] (setting [4]), less than 5.52.
Taken in the same sequence, the figures for `O=c1c(-c2ccc(O)c(Cl)c2)coc2cc(O)cc(O)c12` [compound 5] were 8.92 and 5.96.
As to `COc1cc(O)c2c(=O)c(-c3ccc(O)cc3)coc2c1` [compound 22], the pKi was 7.30 in test [1] and less than 5.52 in test [2].
As for `O=c1c(-c2ccc(O)c(F)c2)coc2cc(O)ccc12` [compound 24], the pKi in test [1] (setting [3]) is 8.48; in test [2] (setting [4]), less than 5.52.
As to `O=c1c(-c2ccsc2)coc2cc(O)cc(O)c12` [compound 18], the pKi was 7.77 in test [1] (setting [3]) and less than 5.52 in test [2] (setting [4]).
Taken in the same sequence, the figures for `O=C1CC(c2ccc(O)cc2)Cc2ccc(O)cc21` (stereo not drawn) [compound 37] were 9.14 and 7.12.
Taken in the same sequence, the figures for `O=c1c(-c2ccc3c(c2)OCO3)coc2cc(O)cc(O)c12` [compound 12] were 7.66 and less than 5.52.
For `CCc1c(-c2ccc(O)cc2)c(=O)oc2cc(O)ccc12` [compound 29], the pKi in test [1] (setting [3]) is 8.40; in test [2] (setting [4]) it was 7.10.
In the case of `O=c1c(-c2ccc(Br)cc2)coc2cc(O)cc(O)c12` [compound 20], the values for the pKi in test [1] (setting [3]) and in test [2] (setting [4]) were 7.60 and less than 5.52, respectively.
Taken in the same sequence, the figures for `COc1cc(-c2coc3cc(O)cc(O)c3c2=O)ccc1O` [compound 9] were 6.84 and less than 5.52.
On to `O=c1c(-c2ccc(O)c(O)c2)coc2cc(O)cc(O)c12` [compound 1], for which the pKi was 8.67 in test [1] (setting [3]) and 6.22 in test [2] (setting [4]).
Taken in the same sequence, the figures for `O=c1c(-c2ccc(O)c(F)c2)coc2cc(O)cc(O)c12` [compound 4] were 9.30 and 7.13.
On to `O=c1c(-c2ccc3ccccc3c2)coc2cc(O)cc(O)c12` [compound 14], for which the pKi is 6.82 in test [1] (setting [3]) and less than 5.52 in test [2] (setting [4]).
Take `Oc1ccc(C2COc3cc(O)ccc3C2)cc1` (stereo not drawn) [compound 46]: the pKi is 8.70 in test [1] (setting [3]) and 6.81 in test [2] (setting [4]).
In the same order, the values of `O=c1c(-c2ccc(O)cc2Cl)coc2cc(O)cc(O)c12` [Compound No. 2] are 9.26 and 7.25.
In the same order, the values of `O=c1c(-c2ccc3ccccc3n2)coc2cc(O)cc(O)c12` [compound 19] are 6.91 and less than 5.52.
In the same order, the values of `C=CCc1cc(-c2coc3cc(O)cc(O)c3c2=O)ccc1O` [compound 7] are 8.49 and less than 5.52.
With `O=c1c(-c2ccc(O)cc2)c(C(F)(F)F)oc2cc(O)ccc12` [compound 25], the pKi in test [1] (setting [3]) was 8.00; in test [2] (setting [4]), 6.49.
Taken in the same sequence, the figures for `O=c1oc2cc(O)cc(O)c2cc1-c1ccc(O)cc1` [compound 39] were 7.10 and less than 5.52.
In the same order, the values of `Cc1c(-c2ccc(O)cc2)c(=O)oc2c(C)c(O)ccc12` [compound 43] are 7.62 and 6.30.
For `Cc1cc(O)cc2occ(-c3ccc(O)cc3)c(=O)c12` [compound 23], the pKi in test [1] (setting [3]) is 9.30; in test [2] (setting [4]), 6.70.
In the same order, the values of `O=c1c(-c2ccc(O)c(Br)c2)coc2cc(O)cc(O)c12` [compound 6, (3-Bromo-4-hydroxyphenyl)-5,7-dihydroxy-4H-1-benzopyran-4-one] are 8.90 and 6.36.
For the compound `O=c1oc2cc(O)ccc2cc1-c1ccc(O)cc1` [compound 38], the negative-log Ki (pKi) in test [1] (setting [3]) was 8.31; in test [2] (setting [4]) it was 6.66.
For the compound `Cc1c(-c2ccc(Cl)cc2)c(=O)oc2cc(O)ccc12` [compound 42], the results for the pKi in test [1] (setting [3]) and in test [2] (setting [4]) were 7.29 and less than 5.52, respectively.

Broadly, the pKi is the Ki on a negative log10 scale, so that one unit is a factor of ten. In general, pKd refers to the Kd on a negative log10 scale, so that one unit is a factor of ten.

The record behind these values is patent US6518301B1, “Estrogen receptor-β ligands” (AstraZeneca AB, priority 1999, dated 2003).
